Data published in patent US6552022B1, “Benzamide derivatives and their use as ApoB-100 secretion inhibitors” (SmithKline Beecham Corporation, priority 1998, dated 2003).

Row | melting point [°C] | SMILES
1 | 199 to 201 | NC(=O)c1cccc(CN2CCN(c3ccc(NC(=O)c4ccccc4-c4ccc(C(F)(F)F)cc4)cc3)CC2)c1 [Example 50, 4′-Trifluoromethyl-biphenyl-2-carboxylic acid {4-[4-(3-carbamoyl-benzyl)-piperazin-1-yl]-phenyl)amide]
2 | 190 to 192 | COC(=O)c1cccc(CN2CCN(c3ccc(NC(=O)c4ccccc4-c4ccc(C(F)(F)F)cc4)cc3)CC2)c1 [Example 55, 4′-Trifluoromethyl-biphenyl-2-carboxylic acid [4-[4-(3-carbomethoxy-benzyl)-piperazin-1-yl]-phenyl]-amide]
3 | 175 to 176.5 | CC(=O)N1CCN(c2ccc(NC(=O)c3ccccc3-c3ccc(C(F)(F)F)cc3)cc2)CC1 [Example 81, 4′-Trifluoromethyl-biphenyl-2-carboxylic Acid [4-(4-acetyl-piperazin-1-yl)-phenyl]-amide]
4 | 178.5 to 180 | N#Cc1cccc(C(=O)N2CCN(c3ccc(NC(=O)c4ccccc4-c4ccc(C(F)(F)F)cc4)cc3)CC2)c1 [Example 80, 4′-Trifluoromethyl-biphenyl-2-carboxylic Acid [4-[4-(3-cyano-benzoyl)-piperazin-1-yl]-phenyl]-amide]
5 | 180 to 182 | COc1cccc(C(=O)Nc2ccc(N3CCN(Cc4cccc(-c5nc(C)no5)c4)CC3)cc2)c1-c1ccc(C(C)C)cc1 [Example 74, 4′-Isopropyl-6-methoxy-biphenyl-2-carboxylic acid (4-(4-(3-(3-methyl-[1,2,4]oxadiazol-5-yl)-benzyl)-piperazine-1-yl)-phenyl)-amide]
6 | 205 to 207 | O=C(NCC(F)(F)F)c1cccc(CN2CCN(c3ccc(NC(=O)c4ccccc4-c4ccc(C(F)(F)F)cc4)cc3)CC2)c1 [Example 79, 4′-Trifluoromethyl-biphenyl-2-carboxylic Acid (4-{4-[3-(2,2,2-trifluoro-ethylcarbamoyl)-benzyl]-piperazin-1-yl}-phenyl)-amide]

More lines, now with the values behind:

Row | SMILES | melting point [°C]
7 | O=C(Nc1ccc(N2CCN(Cc3cccc(F)c3)CC2)cc1)c1ccccc1-c1ccc(C(F)(F)F)cc1 (hydrate or solvate) | 189 to 190.5
8 | CCc1ccc(-c2ccccc2C(=O)Nc2ccc(N3CCN(Cc4cccc(C#N)c4)CC3)cc2)cc1 | 118 to 122
9 | N#Cc1cccc(CN2CCN(c3ccc(NC(=O)c4ccccc4OCc4ccc(C(F)(F)F)cc4)cc3)CC2)c1 [Example 27, N-[4-[4-(3-Cyano-benzyl)-piperazin-1-yl]-phenyl]-2-(4-trifluoromethyl-benzyloxy)-benzamide] | 190 to 191
10 | COc1cccc(C(=O)Nc2ccc(N3CCN(Cc4cccc(C#N)c4)CC3)cc2)c1-c1ccc(C(F)(F)F)cc1 [Example 8, 6-Methoxy-4′-trifluoromethyl-biphenyl-2-carboxylic acid [4-[4-(3-cyano-benzyl)-piperazin-1-yl]-phenyl]-amide] | 215 to 217
11 | Cc1ccc(C(=O)Nc2ccc(N3CCN(Cc4cccc(C#N)c4)CC3)cc2)c(-c2ccc(C(F)(F)F)cc2)c1 [Example 9, 5-Methyl-4′-trifluoromethyl-biphenyl-2-carboxylic acid [4-[4-(3-cyano-benzyl)-piperazin-1-yl]-phenyl]-amide] | 166 to 168
12 | COc1cccc(C(=O)Nc2ccc(N3CCN(Cc4cccc(C#N)c4)CC3)cc2)c1OCCCc1ccccc1 [Example 33, N-[4-[4-(3-Cyano-benzyl)-piperazin-1-yl]-phenyl]-3-methoxy-2-(3-phenyl-propoxy)-benzamide] | 134 to 136
13 | O=C(Nc1ccc(N2CCN(Cc3ccccn3)CC2)cc1)c1ccccc1-c1ccc(C(F)(F)F)cc1 (hydrate or solvate) | 168 to 170
14 | COc1ccc(-c2ccccc2C(=O)Nc2ccc(N3CCN(Cc4cccc(C#N)c4)CC3)cc2)cc1OC | 116 to 120
15 | COc1cccc(CN2CCN(c3ccc(NC(=O)c4ccccc4-c4ccc(C(F)(F)F)cc4)cc3)CC2)c1 (hydrate or solvate) | 168 to 170
